Source: patent US12472193B2, “Methods and compositions for treating and preventing respiratory related diseases and conditions with xylitol-headgroup lipid analogs” (National Jewish Health, priority 2017, dated 2025)
“Also recorded” adds a separate entry of the source.

Columns and labels:
TLR 7 = biological target: T1, TLR 7 (Mus musculus, UniProt P58681); assay: polyU-induced TNFα secretion by RAW264.7 cells (TLR 7 antagonism); type: cell-based; details: for antagonism of TLR 7 activation (TNFα release): 20 μg/mL polyU, 20 μg/mL phospholipid, 4 hours; for TLR7 antagonist activity: reduction in cytokine secretion vs activating TLR ligand alone
T1 construct: endogenous in cells; host or cells: RAW264.7 (ATCC)
T1 sequence (P58681 27-1050): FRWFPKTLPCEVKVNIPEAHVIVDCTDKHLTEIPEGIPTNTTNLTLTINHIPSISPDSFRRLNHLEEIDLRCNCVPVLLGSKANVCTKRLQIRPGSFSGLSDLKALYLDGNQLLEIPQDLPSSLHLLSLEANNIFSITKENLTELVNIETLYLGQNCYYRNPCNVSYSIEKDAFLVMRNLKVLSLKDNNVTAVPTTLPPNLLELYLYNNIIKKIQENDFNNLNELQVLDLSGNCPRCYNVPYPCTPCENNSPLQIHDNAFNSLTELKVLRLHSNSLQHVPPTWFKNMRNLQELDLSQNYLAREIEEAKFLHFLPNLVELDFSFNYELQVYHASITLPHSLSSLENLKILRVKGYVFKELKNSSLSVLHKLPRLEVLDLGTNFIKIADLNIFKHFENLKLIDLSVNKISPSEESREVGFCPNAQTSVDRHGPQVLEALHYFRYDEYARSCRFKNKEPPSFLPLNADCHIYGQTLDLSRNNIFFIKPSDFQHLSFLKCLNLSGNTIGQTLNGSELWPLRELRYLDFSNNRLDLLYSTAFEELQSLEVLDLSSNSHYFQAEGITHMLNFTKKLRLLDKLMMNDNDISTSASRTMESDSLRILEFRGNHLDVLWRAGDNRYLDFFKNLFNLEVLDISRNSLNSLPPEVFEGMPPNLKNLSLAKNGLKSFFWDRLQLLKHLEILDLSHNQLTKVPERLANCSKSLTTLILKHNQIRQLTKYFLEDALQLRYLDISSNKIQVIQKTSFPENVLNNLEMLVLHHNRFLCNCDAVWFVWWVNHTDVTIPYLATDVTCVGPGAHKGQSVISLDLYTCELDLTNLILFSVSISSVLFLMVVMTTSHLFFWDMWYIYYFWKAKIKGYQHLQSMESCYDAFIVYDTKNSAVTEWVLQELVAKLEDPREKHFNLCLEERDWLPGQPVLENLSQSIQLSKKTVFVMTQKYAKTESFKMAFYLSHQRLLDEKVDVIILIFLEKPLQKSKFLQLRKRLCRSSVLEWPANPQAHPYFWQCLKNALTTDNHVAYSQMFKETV
Experimental: The mouse macrophage cell line, RAW264.7, was obtained from ATCC and maintained in DMEM, supplemented with 10% bovine growth serum and 1× penicillin streptomycin. Cells were maintained at 37° C. with 5% carbon dioxide: 95% air atmosphere within the incubator. Experiments were completed in a 96-well plate where cells were seated at a density of 1×10^5 cells per well, 24 prior to stimulation with TLR agonists and antagonists. Lipids were dried under a stream of nitrogen, hydrated with phosphate-buffered saline (PBS) at 37° C. for one hour, followed by water bath sonication to create liposomes. Each condition for cell stimulation and antagonism was prepared in DMEM in a separate tube and consisted of: control, TLR agonist, TLR agonist+lipid, and lipid alone. 100 μL aliquots of medium+agonists+antagonists were added to each well and incubated at 37° C. for 4 hours. Subsequently, the media were collected, diluted and an enzyme-linked immunosorbent assay (ELISA) was performed to quantify TNFα release by cells.
TLR 7 is an intracellular receptor of the endosomal compartment. TLR 7 was the first innate immune receptor reported druggable with small molecules, however no breakthrough treatments have been discovered with TLR 7 agonists/antagonists yet (T. Y.-H. Wu, “Strategies for Designing Synthetic Immune Agonists,” Immunology, 2016). TLR 7 detects single-stranded RNA (ssRNA) within endosomal compartments. Xylitol lipids were assessed for antagonism of TLR 7 activation in the presence of the synthetic ssRNA analog, polyuridylic acid (polyU). The macrophage cell line, RAW264.7, was used to assess antagonist activity of PX analogs in a TLR 7-dependent manner. Cells were stimulated with 20 μg/mL polyU for 4 hours in the absence or presence of 20 μg/mL phospholipid. After a 4-hour stimulation media were collected and TNFα secretion was quantified by ELISA. […] Saturated, ester-linked phospholipids appear to be ineffective at antagonizing TLR 7 activation where as their unsaturated ester-linked and saturated ether-linked counterparts were effective.

RSV = assay: Binding of RSV to solid phase phospholipid; parameters: species or system human RSV A2 strain; details: 0.625 nmol lipid, 37° C., 1 hour
Experimental: Lipids were dried under a stream of nitrogen and resuspended in 100% ethanol, and 0.625 nmol was added in a 40 μL volume to each well of a half-area, 96-well plate. The solvent was evaporated under warm air for 90 minutes. 120 μL of blocking solution (150 mM NaCl, 20 mM Tris pH 7, 5 mM CaCl2) containing 3% BSA w/v) was added to each well and incubated for 1 hour at room temperature. Wells were washed 3 times with (150 mM NaCl, 20 mM Tris pH 7, 5 mM CaCl2)) followed by the addition of 40 μL of serial dilutions of RSV (2.5×10^7, 1.25×10^7, 0.625×10^7, 0.3125×10^7, 0.15625×10^7 pfu/mL) in blocking solution to each well and the plate was incubated at 37° C. for 1 hour. The wells were washed 3 times and 40 μL of α-RSV:HRP antibody diluted 1:500 was added and incubated at 37° C. for 1 hour. After washing out the primary antibody, the peroxidase activity was detected with the substrate o-phenylenediamine and the absorbance read at 490 nm to detect degree of binding.
A quantitative plaque assay takes a week to develop without accounting for maintenance of cells. In order to determine the mechanism of antiviral action of PX analogs and explore a faster assay that could easily be mass-produced, lipids were assessed for their ability to bind RSV. A solid phase of 0.625 nmol of lipid was dried onto a 96-well plate. Binding of fluid-phase RSV to the lipids was assessed at viral concentrations of 8×105 to 2.5×10^7 pfu/mL, at 37° C. for 1 hour. Viral binding was detected with a primary anti-RSV antibody conjugated to HRP. The peroxidase reaction was developed with o-phenylenediamine and absorbance measurement at 490 nm.

Structure (SMILES) | antagonism of TLR 7 activation (TNFα release) (TLR 7) | TLR7 antagonist activity (TLR 7) | binding of solid phase lipid to RSV (RSV)
CCCCCCCCCCCCCCOC[C@H](COP(=O)(O)OCC(O)C(O)C(O)CO)OCCCCCCCCCCCCCC (mixture of isomers) [14:0 DEPX, sn-1-O-myristyl, sn-2-O-myristyl sn-3 glycerol phosphoxylitol] | markedly inhibited | + (cutoff being greater than a 50% reduction in cytokine secretion compared to activating TLR ligand alone) | bound to the RSV virus strongly
CCCCCCC=CCCCCCCCC(=O)OCC(COP(=O)(O)OCC(O)C(O)C(O)CO)OC(=O)CCCCCCCC=CCCCCCC (mixture of isomers) [16:1 DPPX, sn-1-palmitoleoyl, sn-2-palmitoleoyl sn-3 glycerol phosphoxylitol] | markedly inhibited | + (cutoff being greater than a 50% reduction in cytokine secretion compared to activating TLR ligand alone) | only bind weakly
CCCCCCCCC=CCCCCCCCCOCC(COP(=O)(O)OCC(O)C(O)C(O)CO)OCCCCCCCCC=CCCCCCCCC (mixture of isomers) [18:1 DEPX, sn-1-O-octadecenyl, sn-2-O-octadecenyl sn-3 glycerol phosphoxylitol] | markedly inhibited; also recorded: inhibit | + (cutoff being greater than a 50% reduction in cytokine secretion compared to activating TLR ligand alone) | affinity comparable to that of POPG
CCCCCC=CCC=CCCCCCCCC(=O)OCC(COP(=O)(O)OCC(O)C(O)C(O)CO)OC(=O)CCCCCCCC=CCC=CCCCCC (mixture of isomers) [18:2 DLPX, sn-1-linoleoyl, sn-2-linoleoyl sn-3 glycerol phosphoxylitol] | markedly inhibited | + (cutoff being greater than a 50% reduction in cytokine secretion compared to activating TLR ligand alone) | only bind weakly
CCCCCCCCCCCCCC(=O)OC[C@H](COP(=O)(O)OCC(O)C(O)C(O)CO)OC(=O)CCCCCCCCCCCCC (mixture of isomers) [DMPX, sn-1-myristoyl, sn-2-myristoyl sn-3 glycerol phosphoxylitol] | – | – | bound strongly
CCCCCCCCC=CCCCCCCCC(=O)OCC(COP(=O)(O)OCC(O)C(O)C(O)CO)OC(=O)CCCCCCCC=CCCCCCCCC (mixture of isomers) [DOPX, sn-1-oleoyl, sn-2-oleoyl sn-3 glycerol phosphoxylitol] | markedly inhibited; also recorded: inhibit | + (cutoff being greater than a 50% reduction in cytokine secretion compared to activating TLR ligand alone) | only bind weakly
CCCCCCCCCCCCCCCC(=O)OCC(COP(=O)(O)OCC(O)C(O)C(O)CO)OC(=O)CCCCCCCCCCCCCCC (stereo not shown) [DPPX, sn-1-palmitoyl, sn-2-palmitoyl sn-3 glycerol phosphoxylitol] | – | – | bound strongly
CCCCCCCCCCCCCCCCCC(=O)OCC(COP(=O)(O)OCC(O)C(O)C(O)CO)OC(=O)CCCCCCCCCCCCCCCCC (stereo not shown) [DSPX, sn-1-stearoyl, sn-2-stearoyl sn-3 glycerol phosphoxylitol] | – | – | bound strongly
CCCCCCCC/C=C\CCCCCCCC(=O)O[C@H](COC(=O)CCCCCCCCCCCCCCC)COP(=O)([O-])OCC[N+](C)(C)C [POPC, 1-palmitoyl-2-oleoyl-sn-glycero-3-phosphocholine, reference compound] | not affected | – | –
CCCCCCCC/C=C\CCCCCCCC(=O)O[C@H](COC(=O)CCCCCCCCCCCCCCC)COP(=O)(O)OCC(O)CO (stereo partly shown) [POPG, palmitoyl-oleoyl-phosphatidylglycerol, reference compound] | markedly inhibited | – | –
CCCCCCCC/C=C\CCCCCCCC(=O)O[C@H](COC(=O)CCCCCCCCCCCCCCC)COP(=O)(O)OCC(O)C(O)C(O)CO (stereo partly shown) [POPX, sn-1-palmitoyl, sn-2-oleoyly sn-3 glycerol phosphoxylitol] | – | + (cutoff being greater than a 50% reduction in cytokine secretion compared to activating TLR ligand alone) | affinity comparable to that of POPG
